Patent publication US20220339127A1, “DRUGGABLE TARGET TO TREAT RETINAL DEGENERATION” (The United States of America,as represented by the …, priority 2019, published 2022)
Entries after “also recorded” stand apart in the source; their conditions may differ.

Assays:
ATG5 = ATG5 immunostaining in CC-HS treated iRPE; type: cell-based, human; conditions: co-treatment with CC-HS
iRPE cells [1] = assay: Proteotoxic high throughput screen (LOPAC) and follow up screen: survival of A23187 treated iRPE; type: cell-based, human; conditions: for cytoprotective activity in follow up screen: seven-point dose curve, A23187 2.5, 5, 10 μM, two iRPE samples
Protocol: 10 μM concentration of A23187 was selected for the drug screening, because it provided a bigger margin for cell death rescue. […] Drug treatment along with the stressor, 10 μM A23187 were added on to iRPE cells matured in 384-well plates and cell death was scored 48 hours later by ATP release using the CellTitrGlo assay.
To distinguish false positives from the real signal, a follow up screen on all of the 45 drugs using iRPE derived from two different iPSC lines was performed. The follow up screen was performed at three different A23187 concentrations (2.5, 5, 10 μM) and with seven different concentrations of drugs ranging from 10 nM-1 mM (FIG. 13D-F). […] Overall, the HTS screen provided two drugs for testing in the in vitro AMD model.

FIBULIN 3 = FIBULIN 3 expression in CC-HS treated iRPE; type: cell-based, human; conditions: co-treatment with CC-HS, vs CC-HS and vehicle
iRPE monolayer = assay: Transepithelial resistance (TER) of CC-HS treated iRPE monolayer; type: cell-based, human; conditions: co-treatment with CC-HS
From the text: To further dissect the role of C5aR1 and C3aR1 signaling in inducing AMD cellular phenotypes in iRPE cells, a depleted sera and receptor blocker strategy was employed.

CC-HS treated iRPE cells = assay: RNAseq of iRPE co-treated with CC-HS and drugs; type: cell-based, human; conditions: listed as L, 745,870
From the text: The key hallmark of AMD cellular phenotypes seen in cadaver eyes and observed in the in vitro model are the sub-RPE lipid and protein rich deposits, increased expression of drusen markers, and the loss of epithelial phenotype and RPE functionality. […] Similar results were obtained by RNAseq of iRPE treated with just CC-HS plus the vehicle or co-treated with CC-HS and the two drugs. Both drugs were able to suppress (4-10 fold) the expression of dedifferentiation markers in CC-HS treated iRPE cells (FIG. 13H).

iRPE cells [2] = assay: Phagocytosis of photoreceptor outer segments by CC-HS treated iRPE; type: cell-based, human; conditions: co-treatment with CC-HS
From the text: Lastly, it was checked if the drugs rescued mature RPE phenotype and RPE functionality. TER of samples co-treated with drugs and CC-HS was 2-3× higher (p<10^−15) as compared to samples treated with vehicle+CC-HS was similar to TER values of CI-HS treated cells (FIG. 7G). Similarly, the addition of both drugs partially rescued (up to 2×; p<10^−15) the ability of the RPE cells to phagocytose photoreceptor outer segments, as compared to cells treated with CC-HS and the vehicle (FIG. 7H). […] The in vitro and in vivo data provides sufficient evidence to support the potential use of these drugs to delay AMD disease initiation and slow its progression.

rat RPE = assay: Rat model of RPE dedifferentiation (micropulse laser lesion, sub-retinal injection); type: in vivo
Protocol: To test the in vivo activity of these drugs, a rat model of RPE dedifferentiation was developed. A 0.5 mm area of rat RPE was damaged using a micropulse laser. RPE cells in the lasered area are ablated causing the cells surrounding the laser lesion to undergo dedifferentiation due to the loss of cell-cell contacts. […] Effects of drugs on rat RPE dedifferentiation was tested by injecting either of the two drugs in the sub-retinal space of the rat eye at the time of laser injury.

iRPE cells [3] = assay: Nile red staining of lipid deposits in CC-HS treated iRPE; type: cell-based, human; conditions: co-treatment with CC-HS, vs CC-HS and vehicle
iRPE cells [4] = assay: Cell area and hexagonality of CC-HS treated iRPE; type: cell-based, human; conditions: co-treatment with CC-HS

`Clc1ccc(N2CCN(Cc3c[nH]c4ncccc34)CC2)cc1` [L-745,870] was tested, and the “reduced expression of autophagy protein, ATG5” value (ATG5) was “does not lead to”, the IC50 (iRPE cells [1]; cell survival of A23187 treated iRPE, read-out: IC50 dose from seven-point dose response curve) was 6 µM and the “cytoprotective activity in follow up screen” value (iRPE cells [1]) was “reproducible cell survival; also recorded: linear response the seven-point dose curve and reproducibility between two different iRPE samples”. For the same compound, the “cytoprotective activity in follow up screen” value (iRPE cells [1]; listed as L, 745,870) was “reproducible cytoprotective activity”, the “expression of FIBULIN 3” value (FIBULIN 3) was “reduced” and the “expression of FIBULIN 3” value (FIBULIN 3; listed as L745,870) was “four-fold lower”. The “monolayer TER” value (iRPE monolayer) was “increased monolayer TER”, the “gene expression changes induced by CC-HS treatment” value (CC-HS treated iRPE cells) was “reversed gene expression changes induced by CC-HS treatment; also recorded: reversal of the upregulation of NF-KB pathway genes” and the phagocytic ability (iRPE cells [2]) was “increased”. The “area of RPE cells at the borders of laser lesion in rat eyes” value (rat RPE) was “reduced area”, the “hexagonality of RPE cells at the borders of laser lesion in rat eyes” value (rat RPE) was “improved hexagonality” and the “area of RPE cells around the laser lesion” value (rat RPE; sub-retinal injection at the time of laser injury) was 439.55 um2. For the same compound, the “amount of Nile red positive lipid droplets” value (iRPE cells [3]) was “reduced”, the average cell area (iRPE cells [4]) was 162.24 um2 and the “cell area of CC-HS treated iRPE cells” value (iRPE cells [4]) was “reduced area”. The “hexagonality of CC-HS treated iRPE cells” value (iRPE cells [4]) was “improved hexagonality” and the hexagonality score (iRPE cells [4]; 10 represents a perfect hexagon) was 8.25.
